Experimental data published in patent publication US20200261434A1, “IDH1 INHIBITORS FOR THE TREATMENT OF HAEMATOLOGICAL MALIGNANCIES AND SOLID TUMORS” (Agios Pharmaceuticals, Inc., priority 2016, published 2020).
Numbering of substitutions follows the chain as printed. In brackets after ≈: the same amount, converted by molar mass.

Legend:
[1] = biological target: T1, IDH2 R172K (Homo sapiens, UniProt P48735, R172K); assay: Phase 1/2 clinical study AG221-C-001, pharmacodynamic response (2-HG), R172K subjects; type: in vivo; details: subjects with R172K mutation
T1 construct: endogenous in cells; host or cells: malignant haematologic cells of human subjects (in vivo; 2-HG measured in blood)
T1 sequence (P48735 40-452 R172K): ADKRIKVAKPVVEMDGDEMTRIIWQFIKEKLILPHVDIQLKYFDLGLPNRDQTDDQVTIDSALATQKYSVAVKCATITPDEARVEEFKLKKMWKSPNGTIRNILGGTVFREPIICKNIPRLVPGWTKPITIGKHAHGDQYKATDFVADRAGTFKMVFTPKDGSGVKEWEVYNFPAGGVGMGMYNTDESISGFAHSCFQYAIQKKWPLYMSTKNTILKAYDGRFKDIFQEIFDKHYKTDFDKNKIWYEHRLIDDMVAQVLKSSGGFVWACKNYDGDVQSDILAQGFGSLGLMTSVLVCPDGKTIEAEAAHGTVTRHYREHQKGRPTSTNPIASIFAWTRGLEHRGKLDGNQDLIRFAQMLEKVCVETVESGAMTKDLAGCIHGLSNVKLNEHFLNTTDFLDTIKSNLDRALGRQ
Description: (§1) Three days prior to the start of daily dosing of AG-221 (Day −3), the first 3 subjects enrolled in each cohort in the dose escalation phase and the first 15 subjects enrolled in each arm of Part 1 Expansion will receive a single dose of AG-221 in clinic and have serial blood and urine samples obtained for determination of blood and urine concentrations of AG-221, its metabolite AGI-16903, 2-HG, and α-KG. A full 72-hour PK/PD profile will be conducted: subjects will be required to remain at the study site for 10 hours on Day −3 and return on Days −2, −1, and 1 for 24-, 48-, and 72-hour samples, respectively. During the in-clinic period on Day −3, clinical observation and serial 12-lead ECGs and vital signs assessments will be conducted.
(§2) Subjects in the dose escalation phase and Part 1 Expansion also will undergo PK/PD assessments over a 10-hour period on C1D15, C2D1, and C4D1. […] These subjects will have urine collected for PK/PD evaluation at screening; prior to dosing on C1D15, C2D1 and Day 1 of all cycles thereafter; and at the End of Treatment visit. Available bone marrow biopsy samples also will be assessed for 2-HG and α-KG levels.
(§3) Serial blood sampling for determination of concentration-time profiles of COMPOUND 1 and its metabolite (6-(6-(trifluoromethyl)pyridin-2-yl)-N2-(2-(trifluoromethyl)pyridin-4-yl)-1,3,5-triazine-2,4-diamine). […]

[2] = tested on: advanced hematologic malignancies with an IDH2 mutation; assay: Phase 1/2 clinical study AG221-C-001, clinical activity (overall response rate); type: in vivo, human; details: 44 subjects treated at 100 mg QD, preliminary efficacy data
Description: Response to treatment and treatment decisions in all subjects will be determined by the Investigators based on modified International Working Group (IWG) response criteriaor other appropriate response criteria for the malignancy under study.
Overall response rate (ORR), the primary efficacy endpoint, is defined as the rate of responders including complete remission (CR), CR with incomplete platelet recovery (CRp), marrow CR (mCR) (morphologic leukemia-free state [MLFS] for subjects with AML), CR with incomplete hematologic recovery (CRi), and partial remission (PR). Other measures of clinical activity including complete remission rate (CRR), duration of remission/response, event-free survival, overall survival, and time to remission/response will be summarized.
For Phase 1 Dose Escalation/Part 1 Expansion, the efficacy analysis of response rates as assessed by the site Investigators using modified International Working Group (IWG) response criteria will be conducted in Full Analysis Set for each dose level, expansion arm, and overall if appropriate.

[3] = biological target: T2, IDH2 R140Q (Homo sapiens, UniProt P48735, R140Q); assay: Phase 1/2 clinical study AG221-C-001, pharmacodynamic response (2-HG plasma levels), R140Q subjects; type: in vivo; details: most subjects with R140Q mutation, all doses, by Day 1 of Cycle 2
T2 construct: endogenous in cells; host or cells: malignant haematologic cells of human subjects (in vivo; 2-HG measured in plasma)
T2 sequence (P48735 40-452 R140Q): T1 sequence (P48735 40-452 R172K) with R101Q, K133R
Description: as §1, §2, §3

[4] = Phase 1/2 clinical study AG221-C-001, safety; type: in vivo, human; details: 100 mg
Description: Toxicity severity will be graded according to the National Cancer Institute Common Terminology Criteria for Adverse Events (NCI CTCAE) Version 4.03. A DLT is defined as outlined below.
Monitoring of AEs, including determination of DLTs, serious adverse events (SAEs), and AEs leading to discontinuation; safety laboratory parameters; physical examination findings; vital signs; 12-lead ECGs; LVEF; and ECOG PS.
The severity of AEs will be assessed by the NCI CTCAE, Version 4.03.

[5] = solubility in fasted state simulated intestinal fluid (FASSIF); type: physicochemical; details: pH 6.1, at 4 hours

inhibition of 2-HG plasma levels [3]	solubility at 4 h [5] [µg/mL]	Structure (SMILES)	inhibition of 2-HG and exposure, dependence on dose [1]	overall response rate [2] [%]	safety profile, including ≥Grade 3 [4]
up to 98%	–	CC(C)(O)CNc1nc(Nc2ccnc(C(F)(F)F)c2)nc(-c2cccc(C(F)(F)F)n2)n1 [COMPOUND 1, 2-methyl-1-[(4-[6-(trifluoromethyl)pyridin-2-yl]-6-{[2-(trifluoromethyl)pyridin-4-yl]amino}-1,3,5-triazin-2-yl)amino]propan-2-ol]	Increasing dose is associated with higher exposure and inhibition of 2-HG	36.4	consistent with that of lower doses
–	~18 (≈ 30.9 µM)	N#Cc1ccnc(N2C(=O)CC[C@H]2C(=O)N(c2cncc(F)c2)[C@H](C(=O)NC2CC(F)(F)C2)c2ccccc2Cl)c1 [Form 2, (S)—N—((S)-1-(2-chlorophenyl)-2-((3,3-difluorocyclobutyl)amino)-2-oxoethyl)-1-(4-cyanopyridin-2-yl)-N-(5-fluoropyridin-3-yl)-5-oxopyrrolidine-2-carboxamide]	–	–	–
